Reference: PubChem BioAssay (NCI)
“And” between values parts separate entries of the source, which are not always exact repeats. Identical values can stand only once.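 Tested at 5 concentrations; 48 h exposure; 96-well plates; endpoints linearly interpolated, else capped at highest concentration. GI50: concentration for 50% inhibition of growth. TGI denotes the concentration required for complete inhibition of growth.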

What was measured:
Assay in all cases: NCI-60 cell line screen, 48 h
SNB-75 CNS = test system: SNB-75 CNS
SNB-19 CNS = test system: SNB-19 CNS
OVCAR-4 ovarian = test system: OVCAR-4 ovarian
MCF7 breast = test system: MCF7 breast
M14 melanoma = test system: M14 melanoma
SF-539 CNS = test system: SF-539 CNS
KM12 colon = test system: KM12 colon
NCI-H522 lung = test system: NCI-H522 lung
ACHN renal = test system: ACHN renal
CCRF-CEM leukemia = test system: CCRF-CEM leukemia

Structure (SMILES) | GI50 (SNB-75 CNS) [µM] | TGI (SNB-75 CNS) [µM] | GI50 (SNB-19 CNS) [µM] | TGI (SNB-19 CNS) [µM] | GI50 (OVCAR-4 ovarian) [µM] | TGI (OVCAR-4 ovarian) [µM] | GI50 (MCF7 breast) [µM] | TGI (MCF7 breast) [µM] | GI50 (M14 melanoma) [µM] | TGI (M14 melanoma) [µM] | GI50 (SF-539 CNS) [µM] | TGI (SF-539 CNS) [µM] | GI50 (KM12 colon) [µM] | TGI (KM12 colon) [µM] | GI50 (NCI-H522 lung) [µM] | TGI (NCI-H522 lung) [µM] | GI50 (ACHN renal) [µM] | TGI (ACHN renal) [µM] | TGI (CCRF-CEM leukemia) | GI50 (CCRF-CEM leukemia) [µM]
O=S(=O)(NC1=NCCN1C(=S)SN1CCn2c1nsc2=S)c1ccccc1Cl | 13.3 | 55.6 | 41 | > 100 | 15.6 | > 100 | 11.5 | > 100 | 12.8 | 27.1 | 12.9 | 31.5 | 17 | 42.8 | 6.08 | 21.9 | 24.5 | > 100 | – | –
O=C(Nc1nc2ccc([N+](=O)[O-])cc2s1)C(=O)C(C(=O)c1ccncc1)C1OC(=O)c2ccccc21 (stereo not drawn) | – | > 100 | – | > 100 | – | > 100 | – | – | – | > 100 | – | – | – | > 100 | – | – | – | > 100 | > 100 µM | –
COc1nc2c(nc(N)n2C2OCC(O)C(O)C2O)c(=O)n1C (stereo not drawn) | – | > 100 | – | > 100 | – | > 100 | – | – | – | > 100 | – | > 100 | – | > 100 | – | > 100 | – | > 100 | > 100 µM | –
O=c1cccccc1[O-].O=c1cccccc1[O-].O=c1cccccc1[O-].[Ce+3] | – | – | – | > 100 | – | 76.7 | – | – | – | > 100 | 14.8 | 58.8 | – | > 100 | – | 44.1 | – | 96.3 | > 100 µM | –
CC1(C(=O)O)CCOc2ccccc21 (stereo not drawn) | – | > 100 | – | > 100 | – | > 100 | – | – | – | > 100 | – | > 100 | – | – | – | – | – | > 100 | > 100 µM | –
CC(=O)[O-].[Zn].c1ccc(/C(=N\Nc2ccccn2)c2ccccn2)cc1 | – | 2.63 | – | 5.73 | – | 18.1 | – | – | 0.0468 | 1.43 | 1.43 | 9.53 | – | – | 0.131 | 2.06 | 0.0241 | 5.03 | 0.22 µM and 1.22 µM | –
C=C1CCCC2[C@](C)(CC3=C(O)C(=O)C=C(OC)C3=O)[C@@H](C)CC[C@]12C (stereo partly drawn) | – | > 100 | – | – | – | 78.2 | – | – | – | 5.03 | – | 16 | – | 17.4 | – | 28.5 | – | 47.7 | 14.6 µM | –
S=c1sc2cscc2s1 | – | 35.8 | – | 46 | – | 33 | – | – | – | 39.9 | – | 65.5 | – | 33.3 | – | 36.7 | – | 42.5 | 78 µM | –
OCC(O)C(O)C(O)c1nn(-c2ccccc2)c2nc3cc(Cl)c(Cl)cc3nc12 (stereo not drawn) | – | 47.8 | – | > 100 | – | > 100 | – | – | – | 41.1 | – | 38.5 | – | – | – | > 100 | – | > 100 | > 100 µM | –
Nc1cc(S(N)(=O)=O)ccc1SSc1ccc(S(N)(=O)=O)cc1N | – | > 100 | – | > 100 | – | > 100 | – | > 100 | – | > 100 | – | > 100 | – | > 100 | – | > 100 | – | > 100 | – | –
COc1ccc(-c2ccc(-c3ccc(C(=N)N)cn3)o2)cc1Cl | 1.66 | 3.51 | 1.79 | 3.4 | 2.58 | 7.75 | – | – | 1.67 | 3.19 | 1.68 | 3.14 | – | – | 1.85 | 3.59 | 1.69 | 3.1 | 3.78 µM | 1.42
Cc1ccc(C2=C(c3ccc(C)cc3)C(c3ccc(C)cc3)=C(c3ccc(C)cc3)C2=O)cc1 | – | > 100 | – | > 100 | – | – | – | – | – | > 100 | – | > 100 | – | > 100 | – | > 100 | – | > 100 | > 100 µM | –
O=C(Nc1ccc(Br)cc1)C(=O)C(C(=O)c1ccccc1F)C1OC(=O)c2ccccc21 (stereo not drawn) | – | 51.6 | – | > 100 | – | 76 | – | – | – | 43.9 | – | 66.9 | – | > 100 | – | 51.6 | – | > 100 | > 100 µM | –
COC(=O)[C@H](C)NC(=O)[C@@H](OC)[C@@H]1Cc2cc3cc(OC4CC(OC5CC(O)C(O)C(C)O5)C(O)C(C)O4)c(C)c(O)c3c(O)c2C(=O)[C@H]1OC1CC(OC2CC(OC3CC(C)(O)C(O)C(C)O3)C(O)C(C)O2)C(O)C(C)O1 (stereo partly drawn) | 0.0911 | 0.774 | 0.132 | > 50 | 0.163 | 3.43 | 0.0236 | > 50 | 0.113 | 1.41 | 0.0478 | 2.62 | 0.0944 | > 50 | – | – | 0.119 | 2.23 | > 50 µM | 0.147
CCCCCCCCCCCCCCCCCCOc1ccccc1CC(=O)NCC[N+](C)(C)C | 1.98 | 8.9 | – | – | 3.11 | 30 | 3.77 | 34.9 | 3.14 | > 100 | 5.48 | 37 | – | – | 2.67 | 8.24 | 12.9 | 49.2 | – | –
CC(C)CC12CC3CCC(CNC1=O)C32C (stereo not drawn) | – | > 100 | – | > 100 | – | > 100 | – | – | – | > 100 | – | > 100 | – | > 100 | – | > 100 | – | > 100 | > 100 µM | –
COc1ccc2c(c1)c(-c1ccc(-c3cn(C)c4ccc(OC)cc34)[nH]1)cn2C | 2.25 | 6.26 | 3.34 | 14.4 | 1.94 | 4.01 | 5.18 | 24.4 | 3.97 | 20.3 | 1.92 | 3.96 | 2.75 | 9.59 | – | – | 1.91 | 3.54 | 5.8 µM | 2.03
CC1CCCc2c1c1ccc3c(O)cccc3c1oc2=O (stereo not drawn) | – | 21.8 | – | > 100 | – | 91.3 | – | – | – | > 100 | – | – | – | > 100 | – | 55.8 | – | > 100 | > 100 µM | –
CCN(CC)c1ccc(N=C2C=C(Cl)C(=O)c3ncccc32)c(C)c1 | – | 88.3 | – | 89.4 | – | 18.3 | – | – | – | 8.31 | – | 28 | – | – | – | – | – | 11.1 | > 100 µM | –
